Data from US6057371A, “Sigma receptor ligands and the use thereof” (Virginia Commonwealth University, priority 1992, dated 2000).
Where “and” joins values, the source holds several entries; their conditions need not be identical. Equal entries are not always repeated. Where two headings read alike, the source gives them in different places.

What was measured:
[1] = tested on: sigma sites; settings: cited, cited from earlier work; for affinity for sigma-1 site compared to sigma-2 site: Hellewell and Bowen
[2] = molecular target: sigma receptor; experiment: Sigma receptor binding, [^3 H]DTG, brain membranes (both sigma-1 and sigma-2 sites); design: species or system guinea pig; settings: for IC50: Table 6, [^3 H]DTG
[3] = molecular target: T1, sigma-1 binding site (Cavia porcellus, UniProt Q60492); experiment: biochemical; design: species or system guinea pig; settings: for Ki: read-out: SIGMA-1 KI vs. 3H-PENTAZOCINE MEAN
T1 construct: Guinea pig whole membrane preparations (P2 microsomal fraction); from tissue; host or cells: guinea pig membranes (P2 microsomal fraction), as described by Weber et al; brain inferred from the sister test b489
T1 sequence (Q60492 whole entry): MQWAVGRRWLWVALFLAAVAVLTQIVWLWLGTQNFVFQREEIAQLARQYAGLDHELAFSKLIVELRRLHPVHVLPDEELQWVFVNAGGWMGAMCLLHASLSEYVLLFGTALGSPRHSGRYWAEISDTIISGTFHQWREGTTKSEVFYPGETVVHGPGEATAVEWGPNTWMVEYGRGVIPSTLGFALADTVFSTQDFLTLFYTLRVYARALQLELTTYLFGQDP
Protocol: [^3 H]DTG was purchased from DuPont/NEN.
The radioactivity on the filters was determined by scintillation spectrometry at an efficiency of about 50% using Cytoscint (ICN) scintillation fluid.

[4] = molecular target: T2, sigma-2 binding site (Cavia porcellus, UniProt H0V073); experiment: biochemical; design: species or system guinea pig; settings: for IC50: Table 17, read-out: IC50 (nM) at sigma-2
T2 construct: Guinea pig whole membrane preparations (P2 microsomal fraction); from tissue; host or cells: guinea pig membranes (P2 microsomal fraction), as described by Weber et al; brain inferred from the sister test b489
T2 sequence (H0V073 1-176): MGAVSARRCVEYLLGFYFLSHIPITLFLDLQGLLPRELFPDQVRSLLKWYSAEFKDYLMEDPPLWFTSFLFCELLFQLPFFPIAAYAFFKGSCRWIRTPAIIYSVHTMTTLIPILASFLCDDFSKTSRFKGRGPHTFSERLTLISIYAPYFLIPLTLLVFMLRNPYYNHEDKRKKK
Protocol: (§4) For the standard equilibrium assay, the mixtures were incubated for 30 min. at room temperature, then filtered and the radioactivity determined as described above.

[5] = tested on: sigma-2 binding site; experiment: biochemical; design: species or system guinea pig; settings: for sigma-1/sigma-2 ratio: Example 9; for ratio of sigma-1/sigma-2 (sigma-2 selective compounds): greater than about 10, see Table 10
Protocol: as §4

[6] = molecular target: PCP receptor; experiment: PCP receptor binding, ^3 H-MK-801; design: species or system rat; settings: Table 4
Protocol: PCP receptor binding assays against ^3 H-MK-801 were conducted as described by Keana et al., Proc. Natl. Acad. Sci (USA) 86: 5631-5635 (1989); Keana et al., Life Sciences 43: 965-973 (1988). For (+) ^3 H-MK-801 binding, 1 nM of radioligand was incubated with about 100 ug of thawed rat brain membrane protein for 4 hr at room temperature. The assays were carried out in 5 mM Tris/acetate and were stopped by rapid filtration through Whatman GF/B or Schleicher & Schuell no. 32 glass fiber filters (presoaked in 0.05% polyethylenamine).

[7] = molecular target: T3, Dopamine D1 receptor (Rattus norvegicus, UniProt P18901); experiment: Dopamine D1 receptor binding, [^3 H]SCH-23390, striatal membranes; settings: Table 4
T3 construct: Rat striatal membranes were prepared from frozen tissue; from tissue; host or cells: rat striatum, frozen tissue
T3 sequence (P18901 whole entry): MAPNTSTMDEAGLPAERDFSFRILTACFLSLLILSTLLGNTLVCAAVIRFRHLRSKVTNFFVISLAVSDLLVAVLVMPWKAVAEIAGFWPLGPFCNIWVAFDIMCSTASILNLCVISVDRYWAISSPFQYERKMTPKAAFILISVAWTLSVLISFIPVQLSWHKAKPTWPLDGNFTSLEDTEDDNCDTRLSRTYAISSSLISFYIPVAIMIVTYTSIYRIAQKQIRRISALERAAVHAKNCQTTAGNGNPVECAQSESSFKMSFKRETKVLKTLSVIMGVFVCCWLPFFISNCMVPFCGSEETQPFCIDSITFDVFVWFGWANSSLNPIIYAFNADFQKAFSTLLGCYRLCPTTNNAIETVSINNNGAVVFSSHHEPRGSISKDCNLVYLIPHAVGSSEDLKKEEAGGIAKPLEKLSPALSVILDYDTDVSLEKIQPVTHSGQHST
Protocol: (§1) Dopamine D1 and D2 receptor binding assays were performed as described by Billard et al., Life Sci. 35: 1885-1893 (1984) using [^3 H]SCH-23390 for the D1 receptors and [^3 H]domperidone for the D2 receptors (Baudry et al., Arch. Pharmacol. 308: 231-237 (1979).
(§2) Rat striatal membranes were prepared from frozen tissue by Poltron homogenization in 25 volumes of ice cold Tris-EDTA buffer (50 mM Tris-HCl, 1 mM EDTA, pH 7.4 at 4° C.). The homogenate was centrifuged at 48,000× g for 10 min. at 4° C., and the pellet was resuspended in 25 volumes of the same buffer. This suspension was then incubated at 37° C. for 15 min., followed by recentrifugation as before. The resulting pellet was resuspended in 267 volumes of assay buffer (50 mM Tris-HCl, 120 mM NaCl, 5 mM KCl, 2 mM CaCl2, 1 mM MgCl2, pH 7.4 at 37° C.).
(§3) The binding assays were conducted with 100 uL of [^3 H]SCH-23390 or [^3 H]domperidone (to give about 1 nM final), 100 uL of buffer or drug solution, and 800 uL of membrane suspension (to give about 250 ug of striatal membrane protein per assay). The tubes were incubated at 37° C. for 60 min. The assays were stopped by rapid filtration over Schleicher & Schuell #32 or Whatman GF/B glass fiber filters (presoaked in 0.5% polyethyleneimine for [^3 H]domperidone binding), followed by two 3 mL washes of ice cold buffer using a Brandel cell harvester. After vigorous shaking, the filter disks were counted at 52% efficiency in 5 mL of Cytoscint (ICN).

[8] = molecular target: T4, Dopamine D2 receptor (Rattus norvegicus, UniProt P61169); experiment: Dopamine D2 receptor binding, [^3 H]domperidone, striatal membranes; settings: Table 4
T4 construct: Rat striatal membranes were prepared from frozen tissue; from tissue; host or cells: rat striatum, frozen tissue
T4 sequence (P61169 whole entry): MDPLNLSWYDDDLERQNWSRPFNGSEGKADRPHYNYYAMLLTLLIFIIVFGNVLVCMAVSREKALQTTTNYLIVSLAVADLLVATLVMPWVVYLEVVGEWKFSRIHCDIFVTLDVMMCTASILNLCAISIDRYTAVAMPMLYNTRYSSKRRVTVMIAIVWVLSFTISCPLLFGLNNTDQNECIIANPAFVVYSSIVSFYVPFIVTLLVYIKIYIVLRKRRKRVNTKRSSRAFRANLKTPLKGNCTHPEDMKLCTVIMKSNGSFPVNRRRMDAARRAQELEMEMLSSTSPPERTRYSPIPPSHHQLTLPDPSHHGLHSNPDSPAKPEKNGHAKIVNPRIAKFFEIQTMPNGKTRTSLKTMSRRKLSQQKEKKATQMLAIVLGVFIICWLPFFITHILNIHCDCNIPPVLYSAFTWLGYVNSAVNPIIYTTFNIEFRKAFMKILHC
Protocol: as §1, §2, §3

[9] = molecular target: T5, 5-HT1A receptor (Rattus norvegicus, UniProt P19327); experiment: biochemical; type: binding; design: 47: 529-540 (1986); from tissue; host or cells: brain tissue, inferred from the cited method (rat frontal cortex); settings: for IC50: read-out: 5-HT1A IC50
T5 sequence (P19327 1-422): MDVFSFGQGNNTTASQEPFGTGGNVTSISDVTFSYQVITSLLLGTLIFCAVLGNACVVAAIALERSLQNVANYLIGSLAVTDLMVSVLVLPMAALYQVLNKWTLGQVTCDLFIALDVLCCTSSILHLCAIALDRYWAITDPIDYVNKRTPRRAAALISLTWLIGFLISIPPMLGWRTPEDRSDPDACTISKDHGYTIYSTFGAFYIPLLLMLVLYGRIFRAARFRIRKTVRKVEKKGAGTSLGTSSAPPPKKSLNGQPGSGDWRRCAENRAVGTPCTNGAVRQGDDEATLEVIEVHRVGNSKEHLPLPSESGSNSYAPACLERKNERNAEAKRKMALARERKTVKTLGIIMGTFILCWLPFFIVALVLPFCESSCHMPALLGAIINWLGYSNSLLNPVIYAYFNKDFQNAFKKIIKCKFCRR
Protocol: Further sigma receptor binding assays against [^3 H]DTG and 5HT-1A binding assays were conducted according to the procedure outlined in the previous examples.

[10] = cited, Glennon 1984; cited from earlier work
[11] = Table 10, read-out: SIGMA-2 KI vs. 3H-DTG + PENTAZOCINE MEAN

O=C(CCCN1CCC(O)(c2ccc(Cl)cc2)CC1)c1ccc(F)cc1 [Haloperidol]
affinity for sigma sites vs. N-allyl normetrazocine (NANM) ([1]; Tam 1984): approximately 100 fold

COc1ccccc1N1CCN(CCCCN2C(=O)c3ccccc3C2=O)CC1 [Compound 120, N-(4-(1-phthalimido)butyl)-N'-(o-methoxyphenyl)piperazine]
IC50 [2]: 64.7 nM
Ki ([3]; Table 10): 512 nM
S1/S2 Ratio ([3]; Table 10, sigma-1/sigma-2): 6.683
Ki [4, 11]: 76.6 nM
sigma-1/sigma-2 ratio [5]: 7

C[C@H](Cc1ccccc1)NCCCc1ccccc1 [Compound 1, R(-)N-(1-phenyl-2-propyl)-3-phenylpropylamine]
IC50 [6]: > 10000 nM
IC50 [7]: > 10000 nM
IC50 [8]: 4650 ± 430 nM
Ki ([4]; Example 9, read-out: sigma-2 binding affinity): 60 nM
Ki [4, 11]: 60.8 nM
IC50 [4]: 60 nM
IC50 ([9]; Table 5): 115 nM

c1ccc(CCNCCCc2ccc3ccccc3c2)cc1 [Compound 41]
IC50 [6]: > 10000 nM
IC50 [7]: > 10000 nM
IC50 [8]: 1920 ± 190 nM
Ratio 5-HT1A /σ ([9]; Table 5): 7.6
IC50 ([9]; Table 5): 34.7 nM

c1ccc(CCCNCCCc2ccccc2)cc1 [Compound 15, Di-(3-phenylpropyl)-amine]
Ki ([2]; Table 7, Phenyl-(CH2)x -NH--(CH2)y -Phenyl, read-out: Ki): 14 nM
IC50 [6]: > 10000 nM
IC50 [7]: > 10000 nM
IC50 [8]: 1680 ± 3600 nM
Ki ([3]; Table 10): 11.4 nM
S1/S2 Ratio ([3]; Table 10, sigma-1/sigma-2): .178
Ki [4, 11]: 63.9 nM
Ratio 5-HT1A /σ ([9]; Table 5): 2
IC50 ([9]; Table 5): 30.7 nM

c1ccc(CCCNC2CCc3ccccc3CC2)cc1 [Compound 49]
IC50 [6]: > 10000 nM
IC50 [7]: > 10000 nM
Ratio 5-HT1A /σ [9]: 30
IC50 ([9]; Table 5): 313 nM

COc1ccc(CC(C)NCCCc2ccccc2)cc1 (stereo not shown) [Compound 19]
IC50 [6]: > 10000 nM
IC50 [7]: > 10000 nM
Ratio 5-HT1A /σ [9]: 7.6
IC50 ([9]; Table 5): 114 nM

NC1CCc2ccccc2C1 (stereo not shown) [2-aminotetralin]
effectiveness vs. racemic amphetamine [10]: about one-half as effective as racemic amphetamine

CC(C)=CCN1CCC2(C)c3cc(O)ccc3CC1C2C (single isomer, unassigned; (+)) [(+)Pentazocine]
affinity for sigma-1 site compared to sigma-2 site [1]: nearly two orders of magnitude higher affinity for the sigma-1 site compared to the sigma-2 site

C=CCN1CC[C@]2(C)c3cc(O)ccc3C[C@H]1[C@H]2C [(+)SKF 10047, reference compound]
Ki ([4]; SIGMA-2 KI vs. 3H-DTG + PENTAZOCINE MEAN): 16200 nM
affinity for sigma-1 site compared to sigma-2 site [1]: nearly two orders of magnitude higher affinity for the sigma-1 site compared to the sigma-2 site

O=C1c2ccccc2C(=O)N1CCCCN1CCN(c2ccccc2)CC1 [Compound 97]
IC50 [2]: 20.3 nM
Ki ([3]; Table 10): 195 nM
S1/S2 Ratio ([3]; Table 10, sigma-1/sigma-2): 9.587
Ki [4, 11]: 20.4 nM
sigma-1/sigma-2 ratio [5]: 10
ratio of sigma-1/sigma-2 (sigma-2 selective compounds) [5]: greater than 10

O=C1c2ccccc2C(=O)N1CCCN1CCN(c2ccccc2)CC1 [Compound 96, N-phenyl-N'-(3-(1-phthalimido)propyl)piperazine]
IC50 [2]: 141 nM
Ki ([3]; Table 10): 3100 nM
Ki [4, 11]: 149 nM
sigma-1/sigma-2 ratio [5]: 87
ratio of sigma-1/sigma-2 (sigma-2 selective compounds) [5]: greater than 10

CC(Cc1ccc(I)cc1)NCCCc1ccccc1 (racemic) [Compound 22, (±) N-[1-(4'-Iodophenyl)-2-propyl]-3-phenylpropylamine]
IC50 [6]: > 10000 nM
IC50 [7]: > 10000 nM
Ki ([3]; Table 10): 17.7 nM
IC50 ([3]; Table 12, read-out: IC50 (nM) at sigma-1): 17.7 nM
S1/S2 Ratio ([3]; guinea pig, microsomes): 0.232
Ki [4, 11]: 76 nM
IC50 [4]: 76 nM
Ratio 5-HT1A /σ [9]: 13
IC50 ([9]; Table 5): 202 nM

OC1(c2ccccc2)CCN(CCCc2ccccc2)CC1 [Compound 40, 4-Hydroxy-4-phenyl-1-(3-phenylpropyl)piperidine]
IC50 [6]: > 10000 nM
IC50 [7]: > 10000 nM
IC50 ratio of sigma-1/sigma-2 (sigma-1 selective compounds) [3]: less than 0.1
Ki ([3]; Table 10): 0.68 nM
S1/S2 Ratio ([3]; guinea pig, microsomes): 0.074 and 0.096
Ki [4, 11]: 9.2 nM and 7.03 nM
Ratio 5-HT1A /σ [9]: 970
IC50 ([9]; Table 5): 2960 nM

c1ccc(N2CCN(CCCc3ccc4ccccc4c3)CC2)cc1 [Compound 51]
IC50 [6]: > 10000 nM
IC50 [7]: 2990 ± 40 nM
IC50 [8]: 158 ± 28 nM
